Data published in patent publication US20230293560A1, “METHOD FOR MODULATING THE BLADDER MICROBIOME TO IMPROVE BLADDER HEALTH” (Kimberly-Clark Worldwide, Inc., priority 2020, published 2023).
“And” between values parts separate entries of the source, which are not always exact repeats. Equal values may be shown once.

Legend:
[1] = test system: S. anginosus, KC18-1131-3B, Bladder (Sa-2); assay type: cell-based; conditions: Table 6, prebiotic 2%, one line per replicate; for Sa-2 MRS Δ / Sa-2 TSA Δ: change vs start, background growth in CHL media subtracted; for Sa-2 MRS Δ: MRS agar; for Sa-2 MRS end / Sa-2 TSA end: competition Sa-2 vs Lc-3, 48 hours; for Sa-2 MRS end: anaerobic, enumerated on MRS agar; for Sa-2 TSA end: enumerated on TSA
Method: (§1) Further testing was conducted to put the prebiotic compounds in competition assay testing, as further described in the test methods section herein. In the competition assay testing, each competition involved testing a single prebiotic compound with the commensal bacteria species of L. crispatus, KC18-1173-1, Bladder (“Lc-3”—Table 2) against the pathogenic bacterial species of S. anginosus, KC18-1131-3B, Bladder (“Sa-2”—Table 2).
(§2) • 1. An in house bacterial agar was created based on MRS agar (Kaplan and Hutkins, 2000) where the glucose is substituted for the prebiotic to be tested (either dextran MW ˜6,000, alpha-cyclodextrin, glucomannan, or pectin), bromocresol purple was included as a pH indicator. • 2. Bacteria were enumerated on each agar and color changes were recorded. Method for Competition Assay (Modified from “In Vitro Evaluation of Nutrients that Selectively Confer a Competitive Advantage to Lactobacilli” Vongsa et al, Beneficial Microbes 2016) • 1. Create 2% w/v stock of prebiotic or positive control (glucose/dextrose) as described above. • 2. From a freezer stock subculture the bacteria twice into De Man, Rogosa and Sharpe (MRS) broth (BD Difco, Becton Dickinson, Franklin Lakes, NJ), 37° C., stationary, anaerobic, overnight. • 3. From the last subculture, plate onto an MRS agar plate for L. crispatus KC18-1173-1 or blood agar for S. anginosus KC18-1131-3B, grow 37° C., stationary, anaerobic, overnight. • 4. Create a bacterial suspension by using a sterile tipped swab to transfer colonies of bacteria into a PBS suspension blank to a 2 MacFarland for both species. • 5. Enumerate the starting culture. • 6. Add 9.8 mL of prebiotic media into a 15 mL conical tube. • 7. Add 100 μL of the diluted bacteria to the media, incubate at 37° C., anaerobic, 48 hours. • 8. Harvest 100 μL from the tube containing the prebiotic and plate onto MRS agar and tryptic soy agar (TSA). • 9. Enumerate the bacteria on the MRS agar (both the L. crispatus and the S. anginosus). Small colonies are counted as S. anginosus and large colonies are counted as L. crispatus. • 10. Enumerate the bacteria on the TSA plate. […] Growth of the bacteria in the negative control (CHL media without prebiotic) was subtracted from the growth in the presence of the prebiotic or formulation.

[2] = test system: L. crispatus, KC18-1173-1, Bladder (Lc-3); assay: Competition assay, L. crispatus recovered; assay type: cell-based, Lactobacillus crispatus; conditions: Table 6, prebiotic 2%, one line per replicate; for Lc-3 MRS Δ: change vs start, background growth in CHL media subtracted, MRS agar; for Lc-3 MRS end: competition Sa-2 vs Lc-3, 48 hours, enumerated on MRS agar
Method: as §1, §2

[3] = test system: ratio of L. crispatus/S. anginosus; assay: Therapeutic effect protocol (competition assay); assay type: cell-based, Lactobacillus crispatus; Streptococcus anginosus; conditions: Table 6; prebiotic 2%; Lc-3 vs Sa-2
From the text: As used herein, the term “therapeutic effect” refers to the ability of the compositions and formulations of the present disclosure to stimulate the growth of L. crispatus relative S. anginosus measured according to the therapeutic effect protocol described below. The therapeutic effect can be expressed as a ratio of L. crispatus to S. anginosus and is desirably greater than about 100, more preferably greater than about 500 and more desirably greater than about 1,000.
as §1, §2
Colonies of L. crispatus and S. anginosus were tested against in the competition method assay test method as described above. The therapeutic effect was calculated by comparing the colony forming units recovered after the competition assay of both L. crispatus and S. anginosus and calculating the ratio of L. crispatus/S. anginosus. A larger number indicates an increase in L. crispatus and/or a decrease in S. anginosus and a smaller number indicates a decrease in L. crispatus and/or an increase in S. anginosus.

[4] = test system: commensal and pathogenic bacterial species; assay: Prebiotic screening, summary in words across species; assay type: cell-based; conditions: commensal (L. crispatus, L. gasseri, L. jensenii) and pathogenic (S. anginosus, E. faecalis) species
Method: Most of the prebiotic compounds were initially tested in a high throughput assay screening process, described further in the Test Methods section herein, but three prebiotics (as noted in Table 3) were tested using a plate assay screening process as described in the Test Methods section herein. The prebiotics were tested against the commensal bacterial species of Lactobacillus crispatus, Lactobacillus gasseri, and Lactobacillus jensenii and against the pathogenic bacterial species of Streptococcus anginosus and Enterococcus faecalis as shown in Table 2. The bacterial species were taken from different sources, listed as culture collection, bladder, and vagina.
The results of the assay plate screening of the prebiotic compounds of Table 1 against the bacterial species of Table 2 is documented in Table 3 with the results being described by the following legend: • ++ if growth and fermentation was equal to or greater than the positive control • + if growth and fermentation was less than the positive control • […] if weak or no growth or fermentation • NT if not tested Some codes were not tested based on the use or non-use by the bacteria, as a way to efficiently move through the assay plate screening to the competition assay, described below.
• 1. Create a 2% w/v stock of prebiotic or positive control (glucose/dextrose) to be tested in API 50 CHL media (Biomerieux, Marcy-I'Étoile, France). API 50 CHL media contains minimal amounts of carbon for growth, and a bromocresol purple as a pH indicator of fermentation. Filter sterilize media with a […]. Store at 4-6° C. until use. • 2. Add 180 μL of media containing the prebiotic to a sterile, flat bottom 96-well microtiter plate (Corning, Corning, NY). • 3. From a freezer stock subculture the bacteria twice into De Man, Rogosa and Sharpe (MRS) broth (BD Difco, Becton Dickinson, Franklin Lakes, NJ), 37° C., stationary, anaerobic, overnight. • 4. From the last subculture, plate onto an MRS agar plate (Teknova, Hollister, CA) and grow 37° C., stationary, anaerobic, overnight. • 5. Create a bacterial suspension by using a sterile tipped swab to transfer colonies of bacteria into a PBS suspension blank to a 0.5 MacFarland (S. anginosus or E. faecalis) or a 1 MacFarland (Lactobacillus species) from the MRS agar plate. • 6. Enumerate the starting culture. • 7. Inoculate the media alone and media containing the prebiotic or positive control with 20 μL of the bacterial suspension. • 8. Place the plate into a spectrophotometer (Molecular Devices, San Jose, CA) and read the plate every 20 minutes for 24-48 hours. Read wavelengths (OD 430, OD 590, and OD 660). A color change to yellow caused by a drop in pH will be read by an increase in the OD430 value and a decrease in the OD590 value and is indicative of bacterial fermentation. An increase in OD660 values is indicative of an increase in turbidity and bacterial growth.
• 1. An in house bacterial agar was created based on MRS agar (Kaplan and Hutkins, 2000) where the glucose is substituted for the prebiotic to be tested (either dextran MW ˜6,000, alpha-cyclodextrin, glucomannan, or pectin), bromocresol purple was included as a pH indicator. • 2. Bacteria were enumerated on each agar and color changes were recorded. Method for Competition Assay (Modified from “In Vitro Evaluation of Nutrients that Selectively Confer a Competitive Advantage to Lactobacilli” Vongsa et al, Beneficial Microbes 2016) • 1. Create 2% w/v stock of prebiotic or positive control (glucose/dextrose) as described above. • 2. From a freezer stock subculture the bacteria twice into De Man, Rogosa and Sharpe (MRS) broth (BD Difco, Becton Dickinson, Franklin Lakes, NJ), 37° C., stationary, anaerobic, overnight. • 3. From the last subculture, plate onto an MRS agar plate for L. crispatus KC18-1173-1 or blood agar for S. anginosus KC18-1131-3B, grow 37° C., stationary, anaerobic, overnight. • 4. […]

Structure (SMILES) | Sa-2 MRS Δ [1] | Sa-2 TSA Δ [1] | Sa-2 MRS end [1] | Sa-2 TSA end [1] | Lc-3 MRS Δ [2] | Lc-3 MRS end [2] | Therapeutic Effect (ratio of L. crispatus/S. anginosus) [3] | overall outcome of the screening of Table 3, in words [4]
O=CC[C@H](O)[C@H](O)CO [2-Deoxy-D-Ribose] | −2.41 Log CFU/mL and −1.26 Log CFU/mL | −0.63 Log CFU/mL and −0.23 Log CFU/mL | 4.29 Log CFU/mL and 5.59 Log CFU/mL | 6.22 Log CFU/mL and 6.90 Log CFU/mL | −5.22 Log CFU/mL and −1.90 Log CFU/mL | 0 Log CFU/mL and 4.18 Log CFU/mL | 6.03E−07 (2×) and 1.91E−03 (2×) | not able to provide growth for most, if not all, commensal and pathogenic bacterial species
O=C[C@@H](O)[C@H](O)[C@H](O)CO [D-Arabinose] | −0.27 Log CFU/mL and −0.47 Log CFU/mL | −0.46 Log CFU/mL and −0.32 Log CFU/mL | 6.43 Log CFU/mL and 6.38 Log CFU/mL | 6.39 Log CFU/mL and 6.81 Log CFU/mL | −0.13 Log CFU/mL and −0.23 Log CFU/mL | 5.00 Log CFU/mL and 5.85 Log CFU/mL | 4.07E−02 (2×) and 1.10E−01 (2×) | not able to provide growth for most, if not all, commensal and pathogenic bacterial species
OC[C@@H](O)[C@@H](O[C@H]1O[C@H](CO)[C@@H](O)[C@H](O)[C@H]1O)[C@H](O)[C@@H](O)CO [Maltitol] | −0.12 Log CFU/mL and −0.37 Log CFU/mL | 0.41 Log CFU/mL and 0.47 Log CFU/mL | 6.58 Log CFU/mL and 6.48 Log CFU/mL | 7.26 Log CFU/mL and 7.6 Log CFU/mL | 0.35 Log CFU/mL and −0.08 Log CFU/mL | 5.48 Log CFU/mL and 6.00 Log CFU/mL | 1.66E−02 (2×) and 2.51E−02 (2×) | not able to provide growth for most, if not all, commensal and pathogenic bacterial species
O=C(CO)[C@@H](O)[C@H](O)[C@H](O)CO[C@H]1O[C@H](CO)[C@@H](O)[C@H](O)[C@H]1O [Palatinose Hydrate, 6-O-α-D-Glucopyranosyl-D-fructose] | −1.69 Log CFU/mL and −1.90 Log CFU/mL and −1.82 Log CFU/mL | −2.39 Log CFU/mL and −2.07 Log CFU/mL and −0.79 Log CFU/mL and −2.32 Log CFU/mL | 5.16 Log CFU/mL and 4.47 Log CFU/mL and 4.88 Log CFU/mL | 4.74 Log CFU/mL and 4.56 Log CFU/mL and 5.73 Log CFU/mL and 4.53 Log CFU/mL | 2.93 Log CFU/mL and 2.26 Log CFU/mL and 3.24 Log CFU/mL and 1.90 Log CFU/mL | 7.97 Log CFU/mL and 8.00 Log CFU/mL and 8.37 Log CFU/mL and 7.98 Log CFU/mL | 1.74E+03 (2×) and 2.57E+03 (2×) and 3.29E+03 (2×) and 6.92E+03 (2×) | 
O=C(CO)[C@@H](O)[C@H](O)[C@H](O)CO[C@H]1O[C@H](CO)[C@@H](O)[C@H](O)[C@H]1O [Palatinose PST-N] | −2.08 Log CFU/mL and −1.53 Log CFU/mL | −2.11 Log CFU/mL and −1.03 Log CFU/mL | 4.29 Log CFU/mL and 5.16 Log CFU/mL | 4.52 Log CFU/mL and 5.49 Log CFU/mL | 3.42 Log CFU/mL and 2.48 Log CFU/mL | 8.46 Log CFU/mL and 8.22 Log CFU/mL | 8.71E+03 (2×) and 5.80E+03 (2×) | 
O=C(CO)[C@@H](O)[C@H](O)[C@H](O)CO[C@H]1O[C@H](CO)[C@@H](O)[C@H](O)[C@H]1O [Palatinose PST-PA] | −1.63 Log CFU/mL | −0.56 Log CFU/mL and −1.23 Log CFU/mL | 5.06 Log CFU/mL | 6.07 Log CFU/mL and 5.29 Log CFU/mL | 3.25 Log CFU/mL and 1.94 Log CFU/mL | 8.29 Log CFU/mL and 7.68 Log CFU/mL | 1.66E+02 (2×) and 1.50E+02 (2×) | 
O=C(CO)[C@@H](O)[C@H](O)[C@H](O)CO[C@H]1O[C@H](CO)[C@@H](O)[C@H](O)[C@H]1O [Palatinose PST-PF] | −1.28 Log CFU/mL | −2.68 Log CFU/mL and −0.94 Log CFU/mL | 5.41 Log CFU/mL | 3.95 Log CFU/mL and 5.58 Log CFU/mL | 3.02 Log CFU/mL and 2.16 Log CFU/mL | 8.06 Log CFU/mL and 7.90 Log CFU/mL | 1.29E+04 (2×) and 1.41E+04 (2×) | 
